Tests used:
[1] = tested on: Mouse embryonic stem (ES) cells, TC1; test: Cardiomyogenesis modulating activity assay (alpha-MHC promoter EGFP, embryoid bodies, FACS/fluorescence microscopy); type: cell-based; conditions: embryoid bodies treated for 5 days, FACS
Experimental: a. Cell culture: Mouse embryonic stem (ES) cells, TC1 derived from 129/S6 strain were cultured on irradiated feeder layer in the culture medium which is high-glucose DMEM (Gibco) BRL, Germany) supplemented with 15% FBS (Hyclone), 0.1 mM beta-mercaptoethanol, […] sodium pyruvate, 1 mM L-glutamine and 1× non-essential amino acids.
b. Establishment of alpha-MHC stably transformed ES cell line: A construct (FIG. 8) containing 1.8 kb promoter sequence of the mouse alpha-MHC gene between EcoRI and SalI sites of pEGFP-1 (Clontech Laboratories, Inc, CA, USA) was linearized at XhoI site, and was introduced into mouse ES cells, TC1, using the Gene Pulser II (BioRad, MA). A selection medium containing G418 was applied for two weeks from 24 hours after electroporation. The selected ES cell clones were harvested and expanded on the feeder cell layer. The green fluorescence-expressing clones when differentiated into cardiomyocytes were used in this experiment.
c. Cardiomyogenesis modulating activity assay: Embryoid body (EB) was formed by hanging drop culture using about a number of 600 (six hundred) ES cells for two days and it was further expanded by culturing in suspension condition on a Petri-dish for another two days. Then each EB was plated on a well of 96 well culture plates. Test compounds were dissolved in DMSO and diluted with culture media (final 0.05% DMSO) and EB was treated with test compound for 5 days. Culture medium was changed every three days after plating. Expression level of EGFP was measured with FACS (Beckman). For FACS analysis, differentiating cells were dissociated with trypsin. For the determination of the extent of differentiation, EB was observed and photographed with an inverted fluorescence microscope (Zeiss, Germany). Number of beating EBs was counted under the microscope and recorded once daily.

[2] = tested on: human bone marrow derived-mesenchymal stem cells (hBMMSC); test: Osteogenesis modulating activity assay by test compound alone (ALP activity); type: cell-based; conditions: Homo sapiens, 168 h; hBMMSC, 20 μM test compound alone, six to seven days; read-out: Osteogenesis: fold change of ALP activity compared with DMSO control
Experimental: Cell culture: Human bone marrow derived-mesenchymal stem cells (hBMMSC) were isolated from normal subjects.
Osteogenesis modulating activity assay by test compound alone: hBMMSC were cultivated in the culture medium and cells were seeded into 96-well culture plates and test compounds were dissolved in DMSO and diluted with culture media (final 0.01% DMSO) and added into the media (final concentration of test compound was 20 μM) and cultured in the CO2 incubator (37° C., 5% CO2). Culture medium was changed every two days with fresh one and compound was treated again whenever medium was changed. Six to seven days after incubation, Alkaline phosphatase activity of cell lysates was measured by colorimetry. For the determination of mineralization within the cells, Von Kossa staining or Alizarin Red S assay was performed 10-14 days after incubation.

| SMILES | Cardiomyogenesis: fold change of EGFP expression level compared with DMSO control [1] | fold induction at 20 µM [2] |
| --- | --- | --- |
| CN1CC(=O)N2C(Cc3ccc(Oc4ccccc4)cc3)C(=O)N(Cc3cccc4ccccc34)CC2N1C(=O)NCc1ccccc1 (stereo not shown) [#1] | 1.21 fold | 0.36 |
| CC(C)C[C@H]1C(=O)N(CC(=O)N(Cc2ccccc2)c2ccccc2)CC2N1C(=O)CN(C)N2C(=O)NCc1ccccc1 (stereo partly shown) [#2] | 1.11 fold | 1.09 |
| CC(C)C[C@H]1C(=O)N(CCOc2ccccc2N)CC2N1C(=O)CN(C)N2C(=O)NCc1ccccc1 (stereo partly shown) [#3] | 1.25 fold | 1.29 |
| CC(C)C[C@H]1C(=O)N(CC(=O)N(c2ccccc2)c2cccc(Cl)c2)C[C@H]2N1C(=O)CN(C)N2C(=O)NCc1ccccc1 [#4] | 0.40 fold | 0.59 |
| CC(C)C[C@H]1C(=O)N(CC(=O)N2c3ccccc3Oc3ccccc32)C[C@H]2N1C(=O)CN(C)N2C(=O)NCc1ccccc1 [#5] | 0.36 fold | 0.29 |
| CN1CC(=O)N2C(CN(Cc3ccc(Cl)c(Cl)c3)C(=O)[C@H]2Cc2ccc(O)cc2)N1C(=O)NCc1cccnc1 (stereo partly shown) [#6] | 0.47 fold | 0.51 |
| CN1CC(=O)N2[C@@H](Cc3ccc(O)c(C(C)(C)C)c3)C(=O)N(Cc3cccc4cccnc34)C[C@@H]2N1C(=O)NCc1ccccc1 [#7] | 1.22 fold | 0.51 |
| CN1CC(=O)N2[C@@H](CN(Cc3cccc(Cl)c3)C(=O)[C@H]2c2ccc(O)cc2)N1C(=O)NCc1ccccc1 [#8] | 0.65 fold | 0.55 |
| CN1CC(=O)N2C(CN(Cc3ccc(F)cc3)C(=O)[C@@H]2Cc2ccc(O)cc2)N1C(=O)NCc1ccccc1 (stereo partly shown) [#9] | 1.59 fold | 0.24 |
| CN1CC(=O)N2[C@@H](Cc3ccc(O)cc3)C(=O)N(Cc3cccc4[nH]ncc34)C[C@@H]2N1C(=O)NCc1ccccc1 [#11] | 0.07 fold | 0.3 |
| C#CCNC(=O)N1[C@H]2CN(Cc3cccc4ccccc34)C(=O)[C@H](Cc3ccc(O)cc3)N2C(=O)CN1C [#12] | 1.27 fold | 0.76 |
| C=CCN1CC(=O)N2C(Cc3ccc(O)cc3)C(=O)N(Cc3ccc(F)cc3F)C[C@H]2N1C(=O)NCc1ccccc1 (stereo partly shown) [#13] | 1.02 fold | 0.47 |
| C=CCN1CC(=O)N2[C@@H](Cc3ccc(O)cc3)C(=O)N(Cc3ccc(F)c4scnc34)C[C@@H]2N1C(=O)NCc1ccccc1F [#14] | – | 0.29 |
| CC(C)CN1C[C@H]2N(C(=O)CN(C)N2C(=O)NCc2ccccc2)[C@@H](Cc2ccc(O)cc2)C1=O [#15] | 0.41 fold | 1.12 |
| CC(C)CN1C[C@H]2N(C(=O)CN(C)N2C(=O)NCc2ccccc2)[C@@H](CC(=O)O)C1=O [#16] | 1.42 fold | 0.97 |
| CC(C)CN1C[C@H]2N(C(=O)CN(C)N2C(=O)NCc2ccccc2)[C@@H](CCC(=O)O)C1=O [#17] | 2.52 fold | 1.29 |
| CC(C)CN1C[C@H]2N(C(=O)CN(C)N2C(=O)NCc2ccccc2)[C@@H](c2ccccc2)C1=O [#18] | 2.01 fold | 0.93 |
| COc1ccc(CN2CC3N(C(=O)CN(C)N3C(=O)NCc3ccccc3)C(Cc3ccc(O)cc3)C2=O)cc1 (stereo not shown) [#19] | 3.03 fold | 0.7 |
| COc1ccc(CN2C[C@H]3N(C(=O)CN(C)N3C(=O)NCc3ccccc3)[C@@H](CC(C)C)C2=O)cc1 [#20] | 2.17 fold | 1.06 |
| COc1ccc(CN2C[C@H]3N(C(=O)CN(C)N3C(=O)NCc3ccccc3)[C@@H](C(C)C)C2=O)cc1 [#21] | 0.62 fold | 1.21 |
| COc1ccc(CN2C[C@H]3N(C(=O)CN(C)N3C(=O)NCc3ccccc3)[C@@H](Cc3ccccc3)C2=O)cc1 [#22] | 1.16 fold | 0.7 |

| SMILES | Cardiomyogenesis: fold change of EGFP expression level compared with DMSO control [1] | fold induction at 20 µM [2] |
| --- | --- | --- |
| CCC(C)[C@H]1C(=O)N(Cc2ccc(OC)cc2)C[C@H]2N1C(=O)CN(C)N2C(=O)NCc1ccccc1 (stereo partly shown) [#23] | 1.69 fold | 0.86 |
| CCC[C@H]1C(=O)N(Cc2ccc(OC)cc2)C[C@H]2N1C(=O)CN(C)N2C(=O)NCc1ccccc1 [#24] | 1.57 fold | 0.85 |
| COc1ccc(CN2C[C@H]3N(C(=O)CN(C)N3C(=O)NCc3ccccc3)[C@@H](c3ccccc3)C2=O)cc1 [#25] | 1.78 fold | 0.6 |
| C=CCOC(=O)NCCC[C@@H]1C(=O)N(Cc2ccc(OC)cc2)CC2N1C(=O)CN(C)N2C(=O)NCc1ccccc1 (stereo partly shown) [#26] | 1.74 fold | 1.01 |
| CN1CC(=O)N2C(Cc3ccc(OCc4ccccc4)cc3)C(=O)N(CCCc3ccccc3)CC2N1C(=O)NCc1ccccc1 (stereo not shown) [#27] | 0.52 fold | 0.96 |
| CN1CC(=O)N2[C@@H](CC3CCCCC3)C(=O)N(CCCc3ccccc3)C[C@@H]2N1C(=O)NCc1ccccc1 [#28] | 1.23 fold | 0.26 |
| CCCCNC(=O)N1[C@H]2CN([C@@H](C)c3ccccc3)C(=O)[C@H](Cc3ccc(O)cc3)N2C(=O)CN1Cc1ccc(C)cc1 [#45] | – | 1.08 |
| CCCCNC(=O)N1[C@H]2CN([C@@H](C)c3ccccc3)C(=O)[C@H](Cc3ccccc3)N2C(=O)CN1Cc1ccc(C)cc1 [#47] | 2.32 fold | – |
| CCCCNC(=O)N1[C@H]2CN([C@@H](C)c3ccccc3)C(=O)[C@H](CCC)N2C(=O)CN1Cc1ccc(C)cc1 [#48] | 1.02 fold | – |
| CCCCNC(=O)N1[C@H]2CN([C@@H](C)c3ccccc3)C(=O)[C@H](CC(=O)O)N2C(=O)CN1Cc1ccc(C)cc1 [#49] | 1.14 fold | – |
| CCCCNC(=O)N1[C@H]2CN([C@@H](C)c3ccccc3)C(=O)[C@H](CCC(=O)O)N2C(=O)CN1Cc1ccc(C)cc1 [#50] | 0.26 fold | – |
| C#CCN1CC(=O)N2C(Cc3ccc(Cl)cc3)C(=O)N(CCCCCCC)C[C@@H]2N1C(=O)NCc1ccccc1 (stereo partly shown) [#52] | 1.99 fold | – |
| O=C1[C@H](Cc2ccc(O)cc2)N2C(=O)CN(Cc3ccccc3)N(C(=O)NCc3ccccc3)C2CN1Cc1cccc(F)c1 (stereo partly shown) [#53] | 1.95 fold | – |
| CC(C)C[C@H]1C(=O)N(Cc2cccc(F)c2)C[C@H]2N1C(=O)CN(Cc1ccccc1)N2C(=O)NCc1ccccc1 [#54] | 1.42 fold | – |
| O=C1[C@H](Cc2ccccc2)N2C(=O)CN(Cc3ccccc3)N(C(=O)NCc3ccccc3)[C@H]2CN1Cc1cccc(F)c1 [#56] | 1.08 fold | – |
| CCC[C@H]1C(=O)N(Cc2cccc(F)c2)C[C@H]2N1C(=O)CN(Cc1ccccc1)N2C(=O)NCc1ccccc1 [#58] | 1.91 fold | – |
| O=C(O)C[C@H]1C(=O)N(Cc2cccc(F)c2)C[C@H]2N1C(=O)CN(Cc1ccccc1)N2C(=O)NCc1ccccc1 [#59] | 0.48 fold | – |
| O=C1[C@H](c2ccccc2)N2C(=O)CN(Cc3ccccc3)N(C(=O)NCc3ccccc3)[C@H]2CN1Cc1cccc(F)c1 [#60] | 1.23 fold | – |
| O=C1[C@@H](Cc2ccccc2)N2C(=O)CN(Cc3ccc(F)cc3)N(C(=O)NCc3ccccc3)[C@@H]2CN1Cc1cccc(C(F)(F)F)c1 [#61] | 1.06 fold | – |
| O=C1[C@H](COCc2ccccc2)N2C(=O)CN(Cc3ccc(F)cc3)N(C(=O)NCc3ccccc3)C2CN1Cc1cccc(C(F)(F)F)c1 (stereo partly shown) [#62] | 0.89 fold | – |

— patent US20090215783A1, “COMPOSITION FOR INDUCTION OR INHIBITION OF STEM CELL DIFFERENTIATION” (CHOONGWAE PHARMA CORPORATION, priority 2006, published 2009)
